From the SangsterLogP compilation

test: method code SF-TN, from DOI: 10.1007/bf00773207

O=C(O)c1ccccc1Nc1ccccc1Cl and Cc1ccccc1Nc1ccccc1C(=O)O are within 0.2 log units of each other in logP: 3.94 for the first, 4.01 for the second.

Cc1ccc(Nc2ccccc2C(=O)O)cc1 and O=C(O)c1ccccc1Nc1ccc(Cl)cc1 are within 0.2 log units of each other in logP: 4.09 for the first, 4.24 for the second.

Compared with O=C(O)c1ccccc1Nc1ccccc1, O=C(O)c1ccc(Cl)cc1Nc1ccccc1 is higher in logP: 3.52 for the first, 4.25 for the second.

First: COc1ccccc1Nc1ccccc1C(=O)O
Second: COc1ccccc1Nc1cc(Cl)ccc1C(=O)O
The logP of the first is lower: 3.6 for the first, 4.32 for the second.

O=C(O)c1ccc(Cl)cc1Nc1ccccc1Cl and Cc1ccccc1Nc1cc(Cl)ccc1C(=O)O are within 0.2 log units of each other in logP: 4.67 for the first, 4.73 for the second.

Going from COc1ccc(Nc2cc(Cl)ccc2C(=O)O)cc1 to Cc1ccc(Nc2cc(Cl)ccc2C(=O)O)cc1, the logP rises from 4.41 to 4.81.

O=C(O)c1ccc(Cl)cc1Nc1cccc([N+](=O)[O-])c1 and O=C(O)c1ccc(Cl)cc1Nc1ccc([N+](=O)[O-])cc1 are within 0.2 log units of each other in logP: 4.05 for the first, 4.04 for the second.

Going from O=C(O)c1ccc(Cl)cc1Nc1ccc(Cl)cc1 to O=C(O)c1ccc(Cl)cc1Nc1ccc(I)cc1, the logP rises from 4.97 to 5.37.

O=C(O)c1ccc(Cl)cc1Nc1cccc(Br)c1 and O=C(O)c1ccc(Cl)cc1Nc1cccc(Cl)c1 are within 0.2 log units of each other in logP: 5.16 for the first, 5 for the second.

Compared with COc1ccc(Nc2ccccc2C(=O)O)cc1, Cc1ccc(Nc2cc(Cl)ccc2C(=O)O)cc1C is higher in logP: 3.68 for the first, 5.43 for the second.

For Cc1cc(C)cc(Nc2cc(Cl)ccc2C(=O)O)c1, the logP was 5.48.
